Laboratory results taken from ChEMBL document CHEMBL1255356, “The efflux pump inhibitor reserpine selects multidrug-resistant Streptococcus pneumoniae strains that overexpress the ABC transporters PatA and PatB” (2008).
Values after ≈ are worked out from the molar mass of the structure shown.

Experiments:
[1] = tested on: Streptococcus pneumoniae; experiment: Inhibition of ABC efflux pump in Streptococcus pneumoniae M184 assessed as reduction in ciprofloxacin MIC at 80 ug/ml
[2] = tested on: Streptococcus pneumoniae; experiment: Antibacterial activity against Streptococcus pneumoniae M169 by microdilution method; type: functional
[3] = tested on: Streptococcus pneumoniae; experiment: Inhibition of ABC efflux pump in Streptococcus pneumoniae M184 assessed as increase in accumulation of ciprofloxacin by fluorometric uptake assay relative to wild type
[4] = tested on: Streptococcus pneumoniae; experiment: Inhibition of ABC efflux pump in Streptococcus pneumoniae M168 assessed as increase in accumulation of ciprofloxacin by fluorometric uptake assay relative to sStreptococcus pneumoniae M4
[5] = tested on: Streptococcus pneumoniae; experiment: Antibacterial activity against Streptococcus pneumoniae R6 by microdilution method; type: functional
[6] = tested on: Streptococcus pneumoniae; experiment: Inhibition of ABC efflux pump in Streptococcus pneumoniae M169 assessed as increase in accumulation of ethidium bromide by fluorescence method after 10 mins relative to wild type; parameters: scale not given: the % may be the effect or the level left
[7] = tested on: Streptococcus pneumoniae; experiment: Inhibition of ABC efflux pump in Streptococcus pneumoniae M169 assessed as increase in accumulation of ciprofloxacin by fluorometric uptake assay relative to wild type
[8] = tested on: Streptococcus pneumoniae; experiment: Antibacterial activity against Streptococcus pneumoniae M4 by microdilution method; type: functional
[9] = tested on: Streptococcus pneumoniae; experiment: Antibacterial activity against Streptococcus pneumoniae M230 by microdilution method; type: functional
[10] = tested on: Streptococcus pneumoniae; experiment: Antibacterial activity against Streptococcus pneumoniae M184 by microdilution method; type: functional
[11] = tested on: Streptococcus pneumoniae; experiment: Inhibition of ABC efflux pump in Streptococcus pneumoniae M186 assessed as increase in accumulation of ciprofloxacin by fluorometric uptake assay relative to wild type
[12] = tested on: Streptococcus pneumoniae; experiment: Inhibition of ABC efflux pump in Streptococcus pneumoniae M168 assessed as increase in accumulation of ethidium bromide by fluorescence method after 10 mins relative to Streptococcus pneumoniae M4; parameters: scale not given: the % may be the effect or the level left
[13] = tested on: Streptococcus pneumoniae; experiment: Inhibition of ABC efflux pump in Streptococcus pneumoniae M184 assessed as increase in accumulation of ethidium bromide by fluorescence method after 10 mins relative to wild type; parameters: scale not given: the % may be the effect or the level left
[14] = tested on: Streptococcus pneumoniae; experiment: Inhibition of ABC efflux pump in Streptococcus pneumoniae M4 assessed as increase in accumulation of ciprofloxacin by fluorometric uptake assay relative to wild type
[15] = tested on: Streptococcus pneumoniae; experiment: Antibacterial activity against Streptococcus pneumoniae M240 by microdilution method; type: functional
[16] = tested on: Streptococcus pneumoniae; experiment: Antibacterial activity against Streptococcus pneumoniae M186 by microdilution method; type: functional
[17] = tested on: Streptococcus pneumoniae; experiment: Antibacterial activity against Streptococcus pneumoniae M234 by microdilution method; type: functional
[18] = tested on: Streptococcus pneumoniae; experiment: Antibacterial activity against Streptococcus pneumoniae M236 by microdilution method; type: functional
[19] = tested on: Streptococcus pneumoniae; experiment: Antibacterial activity against Streptococcus pneumoniae M231 by microdilution method; type: functional
[20] = tested on: Streptococcus pneumoniae; experiment: Antibacterial activity against Streptococcus pneumoniae M233 by microdilution method; type: functional
[21] = tested on: Streptococcus pneumoniae; experiment: Antibacterial activity against Streptococcus pneumoniae M235 by microdilution method; type: functional
[22] = tested on: Streptococcus pneumoniae; experiment: Inhibition of ABC efflux pump in Streptococcus pneumoniae M186 assessed as increase in accumulation of ethidium bromide by fluorescence method after 10 mins relative to wild type; parameters: scale not given: the % may be the effect or the level left
[23] = tested on: Streptococcus pneumoniae; experiment: Inhibition of ABC efflux pump in Streptococcus pneumoniae M186 assessed as reduction in ciprofloxacin MIC at 80 ug/ml
[24] = tested on: Streptococcus pneumoniae; experiment: Antibacterial activity against Streptococcus pneumoniae M168 by microdilution method; type: functional
[25] = tested on: Streptococcus pneumoniae; experiment: Inhibition of ABC efflux pump in Streptococcus pneumoniae M169 assessed as reduction in ciprofloxacin MIC at 80 ug/ml
[26] = tested on: Streptococcus pneumoniae; experiment: Antibacterial activity against Streptococcus pneumoniae M246 by microdilution method; type: functional

Activity [1]: 1 µg/mL | MIC [2]: 256 µg/mL (≈ 421 µM) | fold change (FC) [3]: 2.8 | fold change (FC) [4]: 2.3 | MIC [5]: 64 µg/mL (≈ 105 µM) | Activity [6]: 24.6% | fold change (FC) [7]: 2.9 | MIC [8]: 64 µg/mL (≈ 105 µM) | MIC [9]: 256 µg/mL (≈ 421 µM) | MIC [10]: 256 µg/mL (≈ 421 µM) | fold change (FC) [11]: 2.1 | Activity [12]: 27.7% | Activity [13]: 26.7% | fold change (FC) [14]: 1.6 | MIC [15]: 64 µg/mL (≈ 105 µM) | MIC [16]: 256 µg/mL (≈ 421 µM) | MIC [17]: 64 µg/mL (≈ 105 µM) | MIC [18]: 64 µg/mL (≈ 105 µM) | MIC [19]: 64 µg/mL (≈ 105 µM) | MIC [20]: 256 µg/mL (≈ 421 µM) | MIC [21]: 256 µg/mL (≈ 421 µM) | Activity [22]: 32.9% | Activity [23]: 1 µg/mL | MIC [24]: 256 µg/mL (≈ 421 µM) | Activity [25]: 1 µg/mL | MIC [26]: 64 µg/mL (≈ 105 µM)
Compound: COC(=O)[C@H]1[C@H]2C[C@@H]3c4[nH]c5cc(OC)ccc5c4CCN3C[C@H]2C[C@@H](OC(=O)c2cc(OC)c(OC)c(OC)c2)[C@@H]1OC [RESERPINE]
